Results reported in patent EP0540143B1, “Compounds and methods for inhibition of HIV and related viruses” (priority 1991, dated 1993).

What was measured:
HIV virus = experiment: Test A (XTT), MT4 cells infected with HIV; format: cell-based; settings: for inhibition at 0.1 µg/mL / inhibition at 1 µg/mL / inhibition at 10 µg/mL / inhibition at 100 µg/mL: Human immunodeficiency virus 1, MT4, Test A; for % inhibition: Test A
Experimental: (§1) Tests A, B, C, and D (XTT)
(§2) MT4 cells in a medium of RPMI 1640, 5% FCS, penicillin/streptomycin are adjusted to 2x10^5 cells/ml and seeded into microplates (96 wells/plate) 100 µl cell suspension/well giving 2x10^4 cells/well. The compound to be tested is made into a 10 mg/ml mixture in DMSO and stored at -20°C. The compound in DMSO is diluted with medium containing 10% DMSO in a 10-fold dilution series to give 1 mg/ml, 10 mg/ml, and […] solutions. Further dilutions to 400, 40, 4 and 0.4 mg/ml are made in medium containing microplates. Fifty µl of the 400, 40, and 4 mg/ml are transferred to the cell-containing microplates with a multi-channel pipette (final concentration: 100, 10, and 1 mg/ml). Finally, 50 µl of virus suspension is added to each well (with a repetitive "Eppendorf" multipipett). Each plate has at least six wells with the following: [Test A: HIV virus; Test B: HIV(II) virus; Test C: SIV virus; Test D: No virus]; with no drug (virus control) and six wells without virus (medium control). The plate is put into a plastic bag and incubated for six days in CO2 atmosphere. To each well in the plate is added 50 µl of XTT ((2,3-bis[2-methoxy-4-nitro-5-sulfophenyl]-5-[(phenylamino)carbonyl]-2H-tetrazolium hydroxide), (1 mg/ml 0.01-0.02 mM N-metyl-phenazonium methosulfate). After six hours of incubation in CO2 atmosphere the plates are covered with adhesive plate sealers and gently mixed on a vortex. Optical densities are determined at a wavelength of 450 nm and a reference wavelength of 650 nm. The percent reduction of cytotoxocity caused by the virus infection is calculated as follows: (OD450 compound - OD450 inf cells)/(OD450 uninf cells - OD450 inf cells)x 100 [formula]

recombinant HIV-RT = recombinant HIV-RT (Human immunodeficiency virus type 1 group M subtype B, UniProt P04585); experiment: Test I (HIVRT (rAdt)), direct inhibition of recombinant HIV-RT; format: biochemical
Experimental: The compounds were tested for direct inhibitory activity on HIV-RT in a volume of […] recombinant HIV-RT (diluted in virus disruption buffer to give 200.000 cpm).
100 mM Tris-HCl pH 7.6, 100 mM KCl, 4 mM MgCl2, 4 mM DTT, 275 mg/ml BSA, 0.5 mg (rA)n(dT)12-18 and 0.3 mM ^3H- dTTP (specific activity […]). After 60 minutess of incubation 40 ml in duplicate were spotted on paper discs and washed in 5% TCA. After rinsing the paper discs in ethanol they were dried and counted in scintillation fluid.

HIV(II) virus = experiment: Test B (XTT), MT4 cells infected with HIV(II); format: cell-based; settings: Human immunodeficiency virus 1, MT4, Test B
Experimental: as §1, §2

SIV virus = experiment: Test C (XTT), MT4 cells infected with SIV; format: cell-based; settings: Simian immunodeficiency virus, MT4, Test C
Experimental: as §1, §2

SMILES | inhibition at 1 µg/mL (HIV virus; 1 µg/ml) | inhibition at 10 µg/mL (HIV virus; 10 µg/ml) | inhibition at 100 µg/mL (HIV virus; 100 µg/ml) | inhibition at 0.1 µg/mL (recombinant HIV-RT) | inhibition at 1 µg/mL (recombinant HIV-RT) | inhibition at 10 µg/mL (recombinant HIV-RT; 10 µg/ml) | also measured
CC(C)(C)c1csc(NC(=S)NCCc2ccccc2)n1 | 0% | 9% | 0% | 8% | 8% | 15% | inhibition at 0.1 µg/mL (HIV virus): 0%
COC(=O)C(=O)c1csc(NC(=S)NCCc2ccccc2)n1 | 0% | 0% | 0% | 1% | 1% | 13% | 
S=C(NCCc1ccccc1)Nc1nc(-c2ccc(Cl)cc2)cs1 | 0% | 0% | 18% | 1% | 1% | 1% | 
S=C(NCCc1ccccc1)Nc1nc(-c2ccc(Br)cc2)cs1 | 0% | 0% | 30% | 1% | 1% | 1% | 
S=C(NCCc1ccccc1)Nc1nc(-c2ccncc2)cs1 | 32% | 51% |  |  |  |  | % inhibition (HIV virus; 1 µg/ml): 46%; % inhibition (HIV virus; 10 µg/ml): 65%
CCCCCCCCCCCCCCc1sc(NC(=S)NCCc2ccccc2)nc1-c1ccc(Cl)cc1 | 0% | 0% | 33% | 1% | 1% | 1% | 
S=C(NCCc1ccccc1)Nc1ccccc1 | 0% | 25% | 0% | 1% | 16% | 16% | 
S=C(NCCc1ccccc1)Nc1ccc(Cl)cc1 | 17% | 67% | 0% | 4% | 29% | 35% | 
Fc1ccc(NC(=S)NCCc2ccccc2)cc1 | 5% | 41% | 0% |  |  |  | inhibition at 0.1 µg/mL (HIV virus): 0%; % inhibition (HIV virus; 10 µg/ml): 32%
S=C(NCCc1ccccc1)Nc1ccccc1Cl | 0% | 52% | 0% | 5% | 31% | 50% | 
NS(=O)(=O)c1ccc(NC(=S)NCCc2ccccc2)cc1 | 0% | 22% |  |  |  |  | inhibition at 0.1 µg/mL (HIV virus): 3%
CCCCOC(=O)c1ccc(NC(=S)NCCc2ccccc2)cc1 | 0% | 0% |  |  |  |  | inhibition at 0.1 µg/mL (HIV virus): 0%
S=C(NCCc1ccccc1)Nc1ccccn1 | 0% | 2% | 6% |  |  |  | 
S=C(NCCc1ccccc1)Nc1ncccn1 | 0% | 23% | 22% | 5% | 12% | 6% | 
Cc1ccnc(NC(=S)NCCc2ccccc2)n1 | 42% | 64% | 100% | 9% | 15% | 9% | inhibition at 1 µg/mL (HIV(II) virus): 0%; inhibition at 10 µg/mL (HIV(II) virus): 27%; inhibition at 100 µg/mL (HIV(II) virus): 100%; inhibition at 1 µg/mL (SIV virus): 0%; inhibition at 10 µg/mL (SIV virus): 0%; inhibition at 100 µg/mL (SIV virus): 0%
S=C(NCCc1ccccc1)Nc1cnccn1 | 4% | 100% | 100% | 1% | 27% | 36% | inhibition at 1 µg/mL (SIV virus): 2%; inhibition at 10 µg/mL (SIV virus): 20%; inhibition at 100 µg/mL (SIV virus): 100%
Cc1nnc(NC(=S)NCCc2ccccc2)s1 | 3% | 38% | 20% | 1% | 21% | 18% | 

SMILES | inhibition at 1 µg/mL (HIV virus; 1 µg/ml) | inhibition at 10 µg/mL (HIV virus; 10 µg/ml) | inhibition at 100 µg/mL (HIV virus; 100 µg/ml) | inhibition at 0.1 µg/mL (recombinant HIV-RT) | inhibition at 1 µg/mL (recombinant HIV-RT) | inhibition at 10 µg/mL (recombinant HIV-RT; 10 µg/ml) | also measured
CCc1nnc(NC(=S)NCCc2ccccc2)s1 | 0% | 7% | 17% | 12% |  | 11% | % inhibition (recombinant HIV-RT; 10 µg/ml): 17%
S=C(NCCc1ccccc1)Nc1nncs1 | 100% | 100% | 100% | 12% | 14% | 14% | inhibition at 1 µg/mL (HIV(II) virus): 100%; inhibition at 10 µg/mL (HIV(II) virus): 57%; inhibition at 100 µg/mL (HIV(II) virus): 96%; inhibition at 1 µg/mL (SIV virus): 0%; inhibition at 10 µg/mL (SIV virus): 17%; inhibition at 100 µg/mL (SIV virus): 0%
S=C(NCCc1ccccc1)Nc1ncco1 | 0% | 0% |  |  |  |  | inhibition at 0.1 µg/mL (HIV virus): 0%
S=C(NCCc1ccccc1)Nc1cc[nH]n1 | 0% | 0% | 0% | 1% | 8% | 38% | 
S=C(NCCc1ccccc1)Nc1cnc2ccccc2c1 | 0% | 71% | 0% |  |  |  | 
S=C(NCCc1ccccc1)NCc1ccco1 | 10% | 7% |  | 7% | 12% | 10% | inhibition at 0.1 µg/mL (HIV virus): 3%
Cc1cccc2sc(NC(=S)NCCc3ccccc3)nc12 | 8% | 28% | 50% | 12% | 12% | 24% | 
CCOc1ccc2nc(NC(=S)NCCc3ccccc3)sc2c1 | 0% | 5% | 33% | 1% | 5% | 8% | 
S=C(NCCc1ccccc1)N1CCCc2ccccc21 | 0% | 0% |  |  |  |  | 
S=C(NCCc1ccccc1)N1CCCCC1 | 0% | 0% |  |  |  |  | inhibition at 0.1 µg/mL (HIV virus): 0%
CN1CCN(C(=S)NCCc2ccccc2)CC1 | 0% | 0% | 0% |  |  |  | 
S=C(NCCc1ccccc1)N1CCOCC1 | 13% | 9% |  |  |  |  | inhibition at 0.1 µg/mL (HIV virus): 0%
COc1ccc(CCNC(=S)Nc2nccs2)cc1OC |  | 54% | 0% |  |  |  | % inhibition (HIV virus; 10 µg/ml): 58%
S=C(NCCc1ccc(Cl)cc1)Nc1nccs1 |  | 79% | 73% |  |  |  | % inhibition (HIV virus; 10 µg/ml): 93%; % inhibition (HIV virus; 100 µg/ml): 71%
Fc1cccc(Cl)c1CCNC(=S)Nc1nccs1 | 100% |  |  | 43% | 77% | 92% | % inhibition (HIV virus; 1 µg/ml): 98%; % inhibition (HIV virus; 10 µg/ml): 52%
CCOc1ccccc1CCNC(=S)Nc1nccs1 | 96% | 100% | 100% | 12% | 30% | 33% | inhibition at 1 µg/mL (HIV(II) virus): 100%; inhibition at 10 µg/mL (HIV(II) virus): 91%; inhibition at 100 µg/mL (HIV(II) virus): 100%; inhibition at 1 µg/mL (SIV virus): 0%; inhibition at 10 µg/mL (SIV virus): 5%; inhibition at 100 µg/mL (SIV virus): 0%
